# Test results as given in US10962541B2 (priority 2014, dated 2021).
# How the values were obtained:
# Rap1 = format: cell-based, monkey
# RhoA [1] = format: cell-based, monkey
# Rac1 = molecular target: T1, Rac1 (Homo sapiens, UniProt P63000); test: G-trap assay validation, active Rac1 in HeLa cells; format: cell-based; settings: calpeptin-mediated activation of RhoA
# T1 construct: endogenous in cells; host or cells: HeLa (ATCC)
# [2] = system: polarized endothelial cells; test: Cell barrier function and viral infection in polarized endothelial cells; format: cell-based; settings: unpublished results
# RhoA [3] = format: cell-based
compound,measurement,setting,value
COC(=O)[C@H](CCSC)NC(=O)c1ccc(NC[C@@H](N)CS)cc1-c1ccccc1 [FTI277],increase in active Rap1,Rap1,~2 fold
CCCC[C@@H](C=O)NC(=O)[C@H](CC(C)C)NC(=O)OCc1ccccc1 [calpeptin],increase in active RhoA,RhoA [1],> 2 fold
same,Rac1 activity,Rac1,concomitant decrease in Rac1 activity
C[C@@H](N)[C@H]1CC[C@H](C(=O)Nc2ccncc2)CC1 [Y27632],loss of cell barrier function,[2],blocks the loss of cell barrier function
same,viral infection,[2],limits viral infection
CCN(CC)CCCC(C)Nc1nc(C)cc(Nc2ccc3nc(C)cc(N)c3c2)n1 (stereo not shown) [NSC23766],RhoA activity,RhoA [3],elevated relative to resting cells
same,activation of RhoA relative to resting cells,RhoA [3],> 5 fold
same,RhoA-GTP above EGF stimulation alone,RhoA [1],1.3 fold
same,RhoA-GTP increase above basal levels,RhoA [1],2 fold
COc1ccc(C2CC(c3ccccc3)=NN2c2ccc(S(N)(=O)=O)cc2)cc1 (stereo not shown) [CID2950007],RhoA activity,RhoA [3],no effect on RhoA activity
